Each molecule was assayed against N-type calcium channel (Homo sapiens, UniProt Q00975) (assay: N-channel FLIPR assay (inhibition of K+-evoked calcium flux in neuronally differentiated IMR32 cells)). Conditions: 80 mM K+ stimulus, read-out: IC50 for the N-type calcium channel, as measured by the FLIPR assay.
Assay type: cell-based

N-type calcium channel, sequence (Q00975 whole entry): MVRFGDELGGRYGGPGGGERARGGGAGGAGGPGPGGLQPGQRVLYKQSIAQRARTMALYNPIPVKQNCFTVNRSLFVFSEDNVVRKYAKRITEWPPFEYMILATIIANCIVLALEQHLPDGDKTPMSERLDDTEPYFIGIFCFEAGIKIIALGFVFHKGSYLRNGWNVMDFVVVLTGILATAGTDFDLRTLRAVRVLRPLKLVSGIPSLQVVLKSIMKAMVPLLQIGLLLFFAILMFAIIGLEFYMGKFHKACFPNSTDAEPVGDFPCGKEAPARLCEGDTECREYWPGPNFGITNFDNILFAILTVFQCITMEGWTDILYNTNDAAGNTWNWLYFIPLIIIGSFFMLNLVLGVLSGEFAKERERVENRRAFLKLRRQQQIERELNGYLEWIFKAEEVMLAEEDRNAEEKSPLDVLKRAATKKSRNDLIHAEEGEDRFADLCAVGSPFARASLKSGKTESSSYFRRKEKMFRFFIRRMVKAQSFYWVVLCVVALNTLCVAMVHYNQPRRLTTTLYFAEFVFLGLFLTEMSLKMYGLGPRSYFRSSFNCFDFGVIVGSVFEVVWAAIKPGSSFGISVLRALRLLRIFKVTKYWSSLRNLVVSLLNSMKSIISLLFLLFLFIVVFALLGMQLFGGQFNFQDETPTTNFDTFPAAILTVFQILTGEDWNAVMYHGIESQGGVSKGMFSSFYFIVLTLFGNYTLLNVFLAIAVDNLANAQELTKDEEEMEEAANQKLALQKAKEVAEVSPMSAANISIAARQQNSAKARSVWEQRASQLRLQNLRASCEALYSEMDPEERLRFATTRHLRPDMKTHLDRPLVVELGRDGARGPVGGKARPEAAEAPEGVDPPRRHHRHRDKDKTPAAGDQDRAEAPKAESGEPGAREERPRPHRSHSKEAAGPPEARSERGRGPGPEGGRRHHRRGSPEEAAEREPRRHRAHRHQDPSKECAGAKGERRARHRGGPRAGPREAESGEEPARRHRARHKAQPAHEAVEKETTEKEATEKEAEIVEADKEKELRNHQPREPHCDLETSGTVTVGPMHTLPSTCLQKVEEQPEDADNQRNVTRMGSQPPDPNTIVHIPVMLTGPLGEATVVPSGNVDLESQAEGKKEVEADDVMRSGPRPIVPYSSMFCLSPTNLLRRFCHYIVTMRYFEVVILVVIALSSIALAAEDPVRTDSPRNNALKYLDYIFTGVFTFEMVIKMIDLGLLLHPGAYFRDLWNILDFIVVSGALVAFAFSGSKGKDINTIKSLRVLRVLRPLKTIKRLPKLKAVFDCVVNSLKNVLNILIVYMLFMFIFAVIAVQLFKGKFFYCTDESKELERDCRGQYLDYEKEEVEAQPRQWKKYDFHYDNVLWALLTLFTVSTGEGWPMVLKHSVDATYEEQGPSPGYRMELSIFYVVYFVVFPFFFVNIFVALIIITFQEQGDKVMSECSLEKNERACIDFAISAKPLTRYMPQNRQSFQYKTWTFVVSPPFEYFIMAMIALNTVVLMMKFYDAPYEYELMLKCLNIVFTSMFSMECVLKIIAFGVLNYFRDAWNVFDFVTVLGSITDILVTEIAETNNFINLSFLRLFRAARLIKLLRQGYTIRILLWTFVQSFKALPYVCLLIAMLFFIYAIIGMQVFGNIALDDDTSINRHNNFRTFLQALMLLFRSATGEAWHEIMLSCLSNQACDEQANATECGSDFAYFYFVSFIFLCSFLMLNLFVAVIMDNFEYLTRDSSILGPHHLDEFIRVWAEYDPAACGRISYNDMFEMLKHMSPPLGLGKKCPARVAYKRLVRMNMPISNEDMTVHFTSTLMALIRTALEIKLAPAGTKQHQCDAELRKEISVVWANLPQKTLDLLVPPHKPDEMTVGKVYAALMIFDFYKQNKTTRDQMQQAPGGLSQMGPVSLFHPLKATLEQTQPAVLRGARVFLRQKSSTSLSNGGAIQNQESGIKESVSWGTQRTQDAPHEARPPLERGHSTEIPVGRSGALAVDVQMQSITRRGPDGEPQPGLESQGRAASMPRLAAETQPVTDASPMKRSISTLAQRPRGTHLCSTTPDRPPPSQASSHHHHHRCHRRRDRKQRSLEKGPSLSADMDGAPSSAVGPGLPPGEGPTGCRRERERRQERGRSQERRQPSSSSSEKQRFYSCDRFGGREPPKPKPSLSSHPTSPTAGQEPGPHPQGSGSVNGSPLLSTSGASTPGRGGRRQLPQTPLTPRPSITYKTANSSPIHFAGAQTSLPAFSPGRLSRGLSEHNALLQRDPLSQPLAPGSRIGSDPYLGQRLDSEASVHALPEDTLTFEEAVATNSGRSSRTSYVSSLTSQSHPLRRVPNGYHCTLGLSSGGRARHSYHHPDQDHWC
N-type calcium channel, sequence (P54284 whole entry partner): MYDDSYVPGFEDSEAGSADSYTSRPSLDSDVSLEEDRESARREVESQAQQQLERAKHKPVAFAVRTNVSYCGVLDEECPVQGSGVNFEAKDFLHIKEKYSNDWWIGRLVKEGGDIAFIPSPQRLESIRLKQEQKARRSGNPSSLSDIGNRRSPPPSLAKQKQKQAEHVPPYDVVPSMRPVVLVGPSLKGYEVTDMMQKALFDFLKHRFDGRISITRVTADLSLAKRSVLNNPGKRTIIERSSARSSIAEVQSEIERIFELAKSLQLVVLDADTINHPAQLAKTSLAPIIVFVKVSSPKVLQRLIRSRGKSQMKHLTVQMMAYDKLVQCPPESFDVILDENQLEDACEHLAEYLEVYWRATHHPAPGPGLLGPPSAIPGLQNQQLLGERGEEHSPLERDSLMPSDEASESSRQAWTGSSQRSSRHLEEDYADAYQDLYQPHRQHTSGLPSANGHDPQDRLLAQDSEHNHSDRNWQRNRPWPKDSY
N-type calcium channel, sequence (P54289 25-956 partner limits assumed): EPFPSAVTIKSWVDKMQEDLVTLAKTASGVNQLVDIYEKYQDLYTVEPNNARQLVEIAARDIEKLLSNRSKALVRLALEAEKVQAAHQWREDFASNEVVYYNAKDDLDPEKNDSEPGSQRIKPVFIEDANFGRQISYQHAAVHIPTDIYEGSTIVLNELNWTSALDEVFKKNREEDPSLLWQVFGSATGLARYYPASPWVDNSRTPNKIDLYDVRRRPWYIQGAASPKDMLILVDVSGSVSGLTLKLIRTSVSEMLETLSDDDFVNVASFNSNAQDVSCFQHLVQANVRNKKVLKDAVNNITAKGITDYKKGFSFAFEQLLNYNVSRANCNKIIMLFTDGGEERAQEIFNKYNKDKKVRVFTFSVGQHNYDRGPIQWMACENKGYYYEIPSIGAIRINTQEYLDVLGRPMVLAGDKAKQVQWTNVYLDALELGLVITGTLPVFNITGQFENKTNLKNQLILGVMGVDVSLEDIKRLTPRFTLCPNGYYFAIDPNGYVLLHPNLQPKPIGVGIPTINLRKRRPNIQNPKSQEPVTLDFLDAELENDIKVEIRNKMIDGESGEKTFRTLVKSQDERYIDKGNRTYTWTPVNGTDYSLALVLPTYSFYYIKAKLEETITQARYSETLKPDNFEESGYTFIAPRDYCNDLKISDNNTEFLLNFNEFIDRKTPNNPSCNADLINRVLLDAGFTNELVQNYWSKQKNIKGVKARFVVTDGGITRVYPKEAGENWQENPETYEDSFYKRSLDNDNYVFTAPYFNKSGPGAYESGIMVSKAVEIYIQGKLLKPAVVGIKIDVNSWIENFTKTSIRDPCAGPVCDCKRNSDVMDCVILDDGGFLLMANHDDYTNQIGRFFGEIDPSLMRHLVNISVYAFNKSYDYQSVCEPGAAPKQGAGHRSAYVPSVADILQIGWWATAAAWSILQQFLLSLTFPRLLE
N-type calcium channel, sequence (P54289 957-1103 partner limits assumed): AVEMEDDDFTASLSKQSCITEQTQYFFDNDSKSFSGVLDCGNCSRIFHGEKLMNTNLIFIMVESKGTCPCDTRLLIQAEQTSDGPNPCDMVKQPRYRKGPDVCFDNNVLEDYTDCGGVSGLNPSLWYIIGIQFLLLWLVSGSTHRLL

| SMILES | IC50 |
| --- | --- |
| Nc1nc(Nc2ccc3nc(-c4ccccc4)cc(N)c3c2)cc(C(F)(F)F)n1 [Example 4, N6-(2-Amino-6-trifluoromethyl-pyrimidin-4-yl)-2-phenyl-quinoline-4,6-diamine] | 3.57 µM |
| Cc1cc(N)c2cc(Nc3cc(-c4ccccc4F)nc(N)n3)ccc2n1 [Example 66, N6-[2-Amino-6-(2-fluoro-phenyl)-pyrimidin-4-yl]-2-methyl-quinoline-4,6-diamine] | 2.37 µM |
| Cc1cc(N)c2cc(Nc3cc(-c4cccc(F)c4)nc(N)n3)ccc2n1 [Example 74, N6-[2-Amino-6-(3-fluoro-phenyl)-pyrimidin-4-yl]-2-methyl-quinoline-4,6-diamine] | 3.56 µM |
| COc1ccccc1-c1cc(Nc2ccc3nc(-c4ccccc4)cc(N)c3c2)nc(N)n1 [Example 75, N6-[2-Amino-6-(2-methoxy-phenyl)-pyrimidin-4-yl]-2-phenyl-quinoline-4,6-diamine] | 10.5 µM |

From US6815447B2, “N-type calcium channel antagonists for the treatment of pain” (Astrazeneca AB, priority 2000, dated 2004)
